Patent US20240082242A1, “COMBINATION THERAPIES” (IMBRIA PHARMACEUTICALS, INC., priority 2021, published 2024)

Assays:
explanted mouse hearts = assay: Langendorff ischemia-reperfusion protocol; details: for infarct size: 20 μM (each) perfusion, triphenyltetrazolium staining, control 68%; for reduction of myocardial infarct size: 20 μM, vs control
Protocol: Studies were conducted to evaluate the effect of CV-8814, a pFOX inhibitor, on protecting heart tissue from ischemia/reperfusion (I/R) injury. Similar studies were performed with trimetazidine (TMZ) as a representative pFOX reference compound. Studies were performed with TMZ alone and TMZ in combination with the metabolic enhancers (e.g., nicotinic acid) for a comparison of single agent and combination agent pharmacologic potencies. FIG. 25 is a schematic of the Langendorff Ischemia-Reperfusion protocol used to test the ability of various compounds to protect the heart from ischemic injury. Test compounds were dissolved at 20 μM in Krebs-Henseleit buffer and perfused through the tissue of mouse hearts at a constant pressure starting at time 0. For each treatment group, 10-18 hearts were tested. A Mikro-tip catheter was inserted into left ventricles to measure cardiac functions, including heart rate, coronary flow, left ventricular systolic and end-diastolic pressure, at the end of the baseline perfusion at 20 minutes. […] At the end of perfusion, hearts were cross-sectioned into five slices, and infarct size was measured by computerized planimetry of triphenyltetrazolium stained heart tissue sections. The concept of combining a pFOX inhibitor with metabolic enhancers (e.g. nicotinamide, nicotinic acid, and succinate) was evaluated in combination Langendorff I/R studies. The combinations included TMZ/nicotinamide/succinate (all at a concentration of 20 μM; coded TNS) and TMZ/nicotinic acid/succinate (all at a concentration of 20 μM; coded TNC).

[1] = tested on: TAC-induced heart failure in mice; assay: Transverse aortic constriction (TAC) model of heart failure; assay type: in vivo, mouse; details: for left ventricular fractional shortening (FS) at Week 6: CV-8972 10, CV-8814 7.5 mg/kg/day, control 34%±3%; for fibrosis of myocardial tissue after six weeks: Masson's trichome, percentage of fibrotic heart tissue, control 10.7±1; for isovolumic relaxation time (IVRT) at Week 6: control 35±1; for isovolumic relaxation time (IVRT) at the three-week assessment: control 36±1; for left ventricular ejection fraction (EF) throughout the six-week study: minipump
Protocol: Studies were conducted to evaluate and compare the efficacy of the reference compound TMZ with CV-8814 and CV-1018972 on ventricular remodeling, preservation of heart function and prevention of fibrosis in a transverse aortic constriction (TAC) model of heart failure in mice.
FIG. 30 is a schematic of the transverse aortic constriction (TAC) protocol used to test the ability of various compounds to protect the heart against heart failure. The aortic arc was exposed via midline incision in the chest cavity of anesthetized mice. A 27-gauge needle was tied against the transverse aorta and then promptly removed to create a ligature constriction. In vivo cardiac function was assessed by transthoracic echocardiography performed at 24-hour, 3-week, and 6-week time-points after TAC. Ventricular remodeling was determined by evaluation of heart weights (HW) and heart weight to body weight ratios (HW/BW). At study termination, hearts were excised, fixed, sectioned at 6 μm and stained with Masson's trichome. The area of fibrosis in myocardial tissue was measured by computerized planimetry on five random fields per heart. A total of 65 to 75 fields were analyzed per treatment group and differences were analyzed by Student's t-test.
Three separate studies were performed to evaluate the efficacy of single agents and combinations with metabolic enhancers in the TAC model of heart failure. In the first study, mice were treated with either trimetazidine alone or trimetazidine+nicotinamide+succinate. In the second study, mice were treated with CV-8814 alone or trimetazidine+nicotinic acid+succinate. In the third study, mice were treated with […], CV-8814, or CV-8972. Overall, the activities of trimetazidine, CV-8814, and CV-8972 on most study endpoints were in good agreement across the three studies. In the third study, the three compounds were analyzed at equivalent mg/kg/day doses on a formula weight basis: 6 mg/kg/d for trimetazidine, 7.5 mg/kg/day for CV-8814; and 10 mg/kg/day for CV-8972. Therefore, the results from the third study are summarized here.

[2] = tested on: fatty acid beta oxidation; assay: PET imaging of 18F-FTHA uptake after CV-8972 injection; assay type: in vivo, rat
From the text: (§1) The effects of CV-8972, a partial fatty acid oxidation inhibitor, on glucose and fatty acid metabolism were investigated using non-invasive positron emission tomography (PET) imaging. The PET radiotracer ^18F fluorodeoxyglucose (FDG), a radiolabeled glucose analog, was used to evaluate cardiac glucose metabolism, and the PET radiotracer ^18F fluoro-6-thia-heptadecanoic acid (FTHA), a radiolabeled long-chain fatty acid (LCFA) analog, was used to evaluate fatty acid beta oxidation. Both radiotracers are “entrapped” in cells in a way that is proportional to either glucose or fatty acid metabolism. For example, high ^18F-FDG or ^18F-FTHA signal indicates high glucose or fatty acid metabolism, respectively, while, conversely, diminished uptake indicates lower metabolism.
(§2) PET imaging with ^18F-FDG and ^18F-FTHA was performed in healthy rats. PET images were acquired dynamically for 120 minutes after tracer injection to capture dynamic changes in cardiac glucose and fatty acid metabolism. For each tracer, animals were imaged twice, once after injection of vehicle (phosphate buffered saline, PBS) or CV-8972 (80 mg/3 mL/kg), subcutaneously injected to the back of animals 15 min prior to PET imaging.
(§3) FIG. 1 is a schematic of the positron emission tomography (PET) imaging study design used to monitor the uptake of ^18F-fluorodeoxyglucose (^18F-FDG) and ^18F-14(R,S)-(18)F-fluoro-6-thia-heptadecanoic acid (^18F-FTHA) into heart tissue of rats in response to treatment with CV-8972. To monitor uptake of ^18F-FDG, rats were fasted for 16 hours prior to day 1. On day 1, rats were given phosphate-buffered saline (PBS) at time 0, and 15 minutes later ^18F-FDG was administered and traced in vivo by PET for two hours following administration. Rats were again fasted for 16 hours prior to day 3. On day 3, rats were given CV-8972 at time 0, and 15 minutes later ^18F-FDG was administered and traced in vivo by PET for two hours following administration. Immediately following the second PET scan, the animals were sacrificed, and the levels of gamma radioactivity in the blood, heart, and skeletal muscle were measured. To monitor uptake of ^18F-FTHA, rats were allowed to eat prior to day 1. On day 1, rats were given PBS at time 0, and 15 minutes later ^18F-FTHA was administered and traced in vivo by PET for two hours following administration. Rats were allowed to eat prior to day 3. On day 3, rats were given CV-8972 at time 0, and 15 minutes later ^18F-FTHA was administered and traced in vivo by PET for two hours following administration. Immediately following the second PET scan, the animals were sacrificed, and the levels of gamma radioactivity in the blood, heart, and skeletal muscle were measured.
(§4) Dynamic positron emission tomography/computed tomography (PET/CT) imaging was obtained with a Mediso nanoScan 122S PET/CT system. Cardiac glucose and fatty acid metabolisms were visualized by tracking ^18F-FDG (NCM-USA LLC, NY, USA) and ^18F-FTHA (Department of Radiology, New York University School of Medicine, NY, USA), respectively. Before the ^18F-FDG scan, rats were fasted overnight for at least 16 hours to minimize the physiological uptake of the radiotracer to cardiomyocyte. Either vehicle (phosphate buffered saline) or CV-8972 (80 mg/3 mL/kg) was subcutaneously injected to the back of animals 15 min prior to PET imaging. Animals were then placed on the scanner, and high-resolution CT images was obtained. Following, dynamic PET was started at the same time as the injection of ^18F-FDG (37 MBq, 1 mCi/0.5 mL/body) via tail vein and recorded for 120 min. Each animal underwent 2 scan sessions, one after vehicle injection and another after CV-8972 injection, with 2 or more days interval (average 2.9 days, 2-6 days). The order of the 2 imaging sessions was randomized among rats. For ^18F-FTHA (37 MBq, 1 mCi/0.5 mL/body), animals received 2 scan sessions under same conditions as those for ^18F-FDG except for fed condition. […]

[3] = mouse, iv, 10 mg/kg
[4] = tested on: cardiac glucose metabolism; assay: PET imaging of 18F-FDG uptake after CV-8972 injection; assay type: in vivo, rat
From the text: as §1, §2, §3, §4

[5] = tested on: radioactivity in the heart, skeletal muscle, and blood; assay: Ex vivo quantification of radiotracer uptake by gamma counting; assay type: in vivo, rat
Protocol: Shortly after the final PET/CT scan, blood was taken from abdominal vein under anesthesia with isoflurane (3-5%), and then animals were euthanized by exsanguination. After thorough perfusion with PBS, the heart and skeletal muscle (right brachium) were harvested. Radioactivity in the heart, muscle, and blood was determined with a Wizard2 2480 automatic gamma counter (Perkin Elmer, Waltham, MA) and % ID/g was calculated for each organ.
The radioactivity in the heart, skeletal muscle, and blood was also determined with a gamma counter shortly after PET/CT imaging for further ex vivo validation.

[6] = 20 μM perfusion, initial single agent study
[7] = CV-8972 80 mg/kg s.c. vs PBS, fed rats
[8] = static analysis at 30 minutes, CV-8972 vs saline
[9] = two-compartment model, CV-8972 80 mg/kg s.c. vs PBS
[10] = gamma counter shortly after PET/CT, CV-8972 80 mg/kg s.c., mean±SD
[11] = gamma counting, CV-8972 vs control

COc1ccc(CN2CCN(CCO)CC2)c(OC)c1OC [CV-8814, 2-[4-[(2,3,4-trimethoxyphenyl)methyl]piperazin-1-yl]ethanol]
infarct size (explanted mouse hearts): 52±4%
left ventricular developed pressure (LVDP) at 20 min (explanted mouse hearts; [6]): 48±8 mmHg
left ventricular developed pressure (LVDP) at 170 min (explanted mouse hearts; [6]): 63±5 mm Hg
coronary flow at the end of the reperfusion period (explanted mouse hearts; 20 μM perfusion, initial single agent study, control 54±6): 90±14 μl/mL
reduction of myocardial infarct size (explanted mouse hearts): ~16%
left ventricular fractional shortening (FS) at Week 6 [1]: 44%±3%
fibrosis of myocardial tissue after six weeks [1]: 6.6±0.6%
isovolumic relaxation time (IVRT) at Week 6 [1]: 28 ± 2 ms
isovolumic relaxation time (IVRT) at the three-week assessment [1]: 33 ± 1 ms
left ventricular ejection fraction (EF) throughout the six-week study ([1]; third study): preserved

COc1ccc(CN2CCNCC2)c(OC)c1OC [TMZ, trimetazidine]
infarct size (explanted mouse hearts): 56±3%
LVDP (explanted mouse hearts; 20 μM TMZ alone, separate study, printed as TMZ vs. control): 49±5 mm Hg
LVDP at T20 (explanted mouse hearts; 20 μM each, combination study): 56±6 mm Hg
LVDP at T170 (explanted mouse hearts; 20 μM each, combination study): 49±5 mm Hg
reduction of myocardial infarct size (explanted mouse hearts): ~9%
fibrosis of myocardial tissue after six weeks [1]: 7.6±1%
diastolic function during TAC-induced heart failure ([1]; TMZ 6 mg/kg/d): did not preserve diastolic function
effect on FS ([1]; TMZ 6 mg/kg/d): did not have a significant effect
left ventricular ejection fraction (EF) throughout the six-week study ([1]; third study): neither TMZ nor nicotinic acid had a beneficial effect

COc1ccc(CN2CCN(CCOC(=O)c3cccnc3)CC2)c(OC)c1OC [CV-8972, 2-[4-[(2,3,4-trimethoxyphenyl)methyl]piperazin-1-yl]ethyl pyridine-3-carboxylate]
18F-FTHA blood signal, last 30 minutes (90-120 minutes) ([2]; CV-8972 80 mg/kg s.c. vs PBS): unaffected
18F-FTHA myocardial signal, last 30 minutes (90-120 minutes) ([2]; CV-8972 80 mg/kg s.c. vs PBS): slightly higher without reaching statistical significance
18F-FTHA signal in the blood, single dynamic frames [2, 7]: did not clearly affect
18F-FTHA uptake in the heart, single dynamic frames [2, 7]: no statistically significant changes
18F-FTHA uptake in the skeletal muscle, single dynamic frames [2, 7]: slightly higher uptake
18F-FTHA signal in the skeletal muscle, last 30 minutes (90-120 minutes) ([2]; CV-8972 80 mg/kg s.c. vs PBS, reached statistical significance): slightly higher signal
initial fold increase of 18F-FTHA PET signal in heart after CV-8972 administration ([2]; from 18F-FTHA circulating in the blood compartment, followed by washout over 120 min): ~2 fold
18F-FTHA uptake into the myocardium and skeletal muscle by kinetic modeling ([2]; three-compartment model, CV-8972 80 mg/kg s.c. vs PBS): significantly higher uptake
conversion of CV-8972 in vivo [3]: rapidly converted to CV-8814
average SUV of 18F-FDG in the heart at 120 min ([4]; CV-8972 80 mg/3 mL/kg s.c. 15 min before PET, fasted healthy rats, mean±SD): 12.56±7.82
18F-FDG signal in the blood, single dynamic frames ([4]; CV-8972 80 mg/kg s.c. vs PBS): did not clearly affect
18F-FDG signal in the skeletal muscle and blood, last 30 minutes (90-120 minutes) ([4]; CV-8972 80 mg/kg s.c. vs PBS): slightly lower signal
18F-FDG uptake in skeletal muscle, single dynamic frames ([4]; CV-8972 80 mg/kg s.c. vs PBS): slightly lower
18F-FDG uptake in the myocardium, last 30 minutes of PET acquisition (90-120 minutes) ([4]; CV-8972 80 mg/kg s.c. vs PBS): significantly higher
fold increase of heart 18F-FDG SUV at 120 min over control group ([4]; CV-8972 80 mg/kg s.c., vs PBS control 0.89±0.62): approximately 14 fold
change in 18F-FDG SUV in skeletal muscle, static analysis [4, 8]: minimal change
fold increase in 18F-FDG SUV in rat heart tissue, static analysis [4, 8]: 12 fold
18F-FDG myocardial uptake by kinetic modeling [4, 9]: significantly higher myocardial uptake
18F-FDG skeletal muscle uptake by kinetic modeling [4, 9]: lower
mean radioactivity of the heart, 18F-FDG [5, 10]: 4.25±1.03 % ID/g
mean radioactivity of the heart, 18F-FTHA [5, 10]: 1.98±0.53 % ID/g
radioactivity of skeletal muscle and blood vs control ([5]; gamma counting, 18F-FDG and 18F-FTHA): did not show clear differences
fold of heart radioactivity over control, 18F-FDG [5, 11]: 5.6 fold
fold of heart radioactivity over control, 18F-FTHA [5, 11]: 3.6 fold
left ventricular fractional shortening (FS) at Week 3 ([1]; CV-8972 10 mg/kg/day, control 37%±3%): 47%±3%
left ventricular fractional shortening (FS) at Week 6 [1]: 46%±3%
fibrosis of myocardial tissue after six weeks [1]: 6.6±0.6%
isovolumic relaxation time (IVRT) at Week 6 [1]: 31 ± 2 ms
isovolumic relaxation time (IVRT) at the three-week assessment [1]: 32 ± 1 ms
left ventricular ejection fraction (EF) throughout the six-week study ([1]; third study): preserved
heart weight to body weight ratio ([1]; third study, CV-8972 10 mg/kg/day, control 9.1±0.5): 7.4 ± 0.3 mg/g
left ventricular mass ([1]; third study, CV-8972 10 mg/kg/day, control 195±12): 156 ± 10 mg
heart weight ([1]; third study, subcutaneous osmotic minipump, CV-8972 10 mg/kg/day, control 270±14): 225 ± 11 mg

O=C(O)c1cccnc1 [Nicotinic acid, nicotinic acid, reference compound]
fibrosis of myocardial tissue after six weeks [1]: 8.2±1%
left ventricular ejection fraction (EF) throughout the six-week study ([1]; third study): neither TMZ nor nicotinic acid had a beneficial effect
